Experiment [1] addresses T1, Peroxisome proliferator-activated receptor gamma (Homo sapiens, UniProt P37231).
T1 sequence (P37231 whole entry): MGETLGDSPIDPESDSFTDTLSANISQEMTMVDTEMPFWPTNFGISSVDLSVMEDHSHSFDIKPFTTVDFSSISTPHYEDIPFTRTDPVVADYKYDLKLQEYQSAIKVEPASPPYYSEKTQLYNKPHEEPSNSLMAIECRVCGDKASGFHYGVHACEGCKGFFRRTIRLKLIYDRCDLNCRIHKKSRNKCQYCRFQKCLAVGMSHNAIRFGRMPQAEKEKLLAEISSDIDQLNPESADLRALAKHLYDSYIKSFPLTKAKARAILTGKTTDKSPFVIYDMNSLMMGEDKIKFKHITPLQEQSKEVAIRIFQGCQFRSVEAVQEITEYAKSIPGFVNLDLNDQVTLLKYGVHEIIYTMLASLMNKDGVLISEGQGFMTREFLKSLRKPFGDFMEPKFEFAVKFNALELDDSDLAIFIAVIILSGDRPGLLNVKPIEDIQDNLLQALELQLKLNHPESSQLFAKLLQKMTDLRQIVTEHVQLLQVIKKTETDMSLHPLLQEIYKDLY
Description: Binding affinity was determined by displacement of 20 nM [3H]- thiazolidinedione from 4 nM biotinylated human peroxisome proliferator-activated receptor (PPAR gamma) ligand binding domain

The nature of experiment [2]: Tested for transactivation of human PPAR gamma-Gal4 chimera in CV-1 cells. It counts as functional, cell-based.
For experiment [3], the target named is T1, Peroxisome proliferator-activated receptor gamma. In words: Binding affinity was determined by displacement of 20 nM [3H]- thiazolidinedione from 4 nM biotinylated human Peroxisome proliferator activated receptor gamma (PPAR gamma) ligand binding domain.

`CCCCCCC(=O)NCCOc1ccc(CC2SC(=O)NC2=O)cc1` (stereo not drawn): affinity in experiment [1] was put at a Ki of 1.4 µM.

For `CCCCCCCCCC(=O)N(C)CCOc1ccc(CC2SC(=O)NC2=O)cc1` (stereo not drawn), in experiment [2], the half-maximal effective concentration (EC50) – broadly, the midpoint of the concentration-response curve – is 0.29 µM. The Ki (commonly a measure of affinity in units of concentration, obtained from inhibition or displacement) in experiment [1] is 0.02 µM. Take `CCCCCC(=O)N(C)CCOc1ccc(CC2SC(=O)NC2=O)cc1` (stereo not drawn): the inhibition constant (Ki) in experiment [1] stood at 0.18 µM. Turning to `CCCCCCCC(=O)NCCOc1ccc(CC2SC(=O)NC2=O)cc1` (stereo not drawn), affinity in experiment [1] was put at a Ki of 0.29 µM. The compound `CCCCCCC(=O)N(C)CCOc1ccc(CC2SC(=O)NC2=O)cc1` (stereo not drawn) gave an EC50 in experiment [2] of 0.81 µM. The affinity in experiment [1], expressed as Ki, was 0.061 µM. For `CCCCC/C=C/C/C=C\C/C=C\C/C=C\CCCC(=O)O` the same measures were 30 µM and 1.5 µM. Compound `C/C=C/CC(=O)N(C)CCOc1ccc(CC2SC(=O)NC2=O)cc1` (stereo not drawn) returned a Ki in experiment [1] of 1.2 µM. As to `C=CCCC(=O)NCCOc1ccc(CC2SC(=O)NC2=O)cc1` (stereo not drawn), in experiment [1], the inhibition constant (Ki) is > 10 µM. For `CCCCCC(=O)NCCOc1ccc(CC2SC(=O)NC2=O)cc1` (stereo not drawn), in experiment [3], the Ki was determined as 10 µM.

On to `C=CCCC(=O)N(C)CCOc1ccc(CC2SC(=O)NC2=O)cc1` (stereo not drawn), for which the inhibitory constant (Ki) in experiment [1] was 0.6 µM. Same read-out and setting: for `CCCCC(=O)NCCOc1ccc(CC2SC(=O)NC2=O)cc1` (stereo not drawn) the value was > 10 µM; for `CCCCCCCCCC(=O)NCCOc1ccc(CC2SC(=O)NC2=O)cc1` (stereo not drawn), 0.13 µM; for `CCCCC(=O)N(C)CCOc1ccc(CC2SC(=O)NC2=O)cc1` (stereo not drawn), 1.1 µM. `C=CCC/C=C/C(=O)NCCOc1ccc(CC2SC(=O)NC2=O)cc1` (stereo not drawn) displayed a Ki in experiment [1] of 6.8 µM. `CCCCCCCCC(=O)N(C)CCOc1ccc(CC2SC(=O)NC2=O)cc1` (stereo not drawn) displayed a concentration giving a half-maximal response (EC50) in experiment [2] of 0.28 µM. For the same compound, in experiment [1], the affinity, expressed as Ki, was 0.018 µM.

For `CC/C=C/C(=O)N(C)CCOc1ccc(CC2SC(=O)NC2=O)cc1` (stereo not drawn), the Ki in experiment [1] is 1.2 µM. In the case of `CCCCCCCC(=O)N(C)CCOc1ccc(CC2SC(=O)NC2=O)cc1` (stereo not drawn), the concentration for a half-maximal effect (EC50) in experiment [2] is 0.28 µM. The Ki in experiment [1] turned out to be 0.048 µM.

For the compound `C/C=C/CC(=O)NCCOc1ccc(CC2SC(=O)NC2=O)cc1` (stereo not drawn), the Ki in experiment [1] was > 10 µM. Same read-out and setting: for `CC/C=C/C(=O)NCCOc1ccc(CC2SC(=O)NC2=O)cc1` (stereo not drawn) the value was > 10 µM. `CN(CCOc1ccc(CC2SC(=O)NC2=O)cc1)c1ccccn1` (stereo not drawn) [ROSIGLITAZONE] came in with an EC50 in experiment [2] of 0.05 µM. In the case of `CCCCCCCCC(=O)NCCOc1ccc(CC2SC(=O)NC2=O)cc1` (stereo not drawn), in experiment [1], the affinity, expressed as Ki, was 0.27 µM.

Take `C=CCC/C=C/C(=O)N(C)CCOc1ccc(CC2SC(=O)NC2=O)cc1` (stereo not drawn): the EC50 in experiment [2] was found to be 0.52 µM. In experiment [1], this compound displayed an inhibition constant Ki of 0.018 µM.
